pIC50: −log10 of the molar value.
How the values were obtained:
[1] = biological target: T1, Prothrombin (Homo sapiens, UniProt P00734)
[2] = biological target: T2, Anionic trypsin-2 (Rattus norvegicus, UniProt P00763); experiment: Inhibitory concentration against trypsin
T2 sequence (P00763 whole entry): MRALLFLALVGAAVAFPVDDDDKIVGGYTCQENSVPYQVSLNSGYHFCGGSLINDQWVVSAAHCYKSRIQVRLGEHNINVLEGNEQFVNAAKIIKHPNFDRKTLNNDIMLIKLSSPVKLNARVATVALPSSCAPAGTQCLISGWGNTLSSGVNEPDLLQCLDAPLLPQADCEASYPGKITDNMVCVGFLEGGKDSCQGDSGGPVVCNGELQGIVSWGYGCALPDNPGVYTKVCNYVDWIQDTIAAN

[3] = biological target: Coagulation factor X (Homo sapiens, UniProt P00742); experiment: Inhibitory concentration to factor Xa
[4] = test system: Oryctolagus cuniculus; experiment: Percent inhibition of thrombosis at the dose of 50 ug/kg in rabbit deep vein thrombosis model; format: functional
[5] = Bioavailability in rat at an oral dose of 2 mg/kg; format: ADME, organism-based; conditions: in vivo
[6] = Half-life period in rabbits following intravenous administration at 2 mg/kg; format: ADME, organism-based, Oryctolagus cuniculus; set-up: dose 2 mg/kg, route intravenous; conditions: rabbit, in vivo
[7] = test system: Oryctolagus cuniculus; experiment: Plasma concentration at the dose of 100 ug/kg in rabbit; format: functional, organism-based
[8] = biological target: T1, Prothrombin; experiment: Inhibitory concentration against factor IIa
[9] = test system: Oryctolagus cuniculus; experiment: Percent inhibition of thrombosis at the dose of 100 ug/kg in rabbit deep vein thrombosis model; format: functional
[10] = Half-life period in rats following intravenous administration at 2 mg/kg; format: ADME, organism-based; set-up: dose 2 mg/kg, route intravenous; conditions: rat, in vivo
[11] = test system: Oryctolagus cuniculus; experiment: Percent inhibition of thrombosis at the dose of 25 ug/kg in rabbit deep vein thrombosis model; format: functional; conditions: at 25 µg/kg

Chain of Coagulation factor X (P00742 41-179 limits assumed): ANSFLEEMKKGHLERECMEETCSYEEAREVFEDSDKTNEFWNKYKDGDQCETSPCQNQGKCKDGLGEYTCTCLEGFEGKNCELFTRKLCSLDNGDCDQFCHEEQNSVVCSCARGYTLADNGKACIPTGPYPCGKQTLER
Chain of Coagulation factor X (P00742 235-488 limits assumed): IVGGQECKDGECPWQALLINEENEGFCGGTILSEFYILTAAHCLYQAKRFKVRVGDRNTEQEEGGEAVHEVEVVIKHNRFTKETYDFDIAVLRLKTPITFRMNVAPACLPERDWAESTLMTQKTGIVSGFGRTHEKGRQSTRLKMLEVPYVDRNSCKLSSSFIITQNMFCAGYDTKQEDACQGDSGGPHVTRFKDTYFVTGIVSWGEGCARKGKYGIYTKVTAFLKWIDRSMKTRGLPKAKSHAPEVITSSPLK

| Structure (SMILES) | pIC50 [1] | pIC50 [2] | pIC50 [3] | further results |
| --- | --- | --- | --- | --- |
| CC(=N)N1CCC(Oc2ccc3c(c2)OCC(=O)N3Cc2cccc(-c3cccc(C(=N)N)c3)c2)CC1 | < 5.00 | 6.84 | – | – |
| CS(=O)(=O)N(Cc1ccc2ccc(C(=N)N)cc2c1)c1ccc(-c2ccccc2S(N)(=O)=O)cc1 | – | – | 6.82 | – |
| Cc1cc(CN(c2ccc(-c3ccccc3S(N)(=O)=O)cc2)S(C)(=O)=O)nn1-c1cccc(C(=N)N)c1 | – | – | 5.41 | – |
| CC(=N)N1CCC(Oc2ccc(N(Cc3ccc(-c4cccc(C(=N)N)c4)cc3)S(C)(=O)=O)cc2)CC1 | < 5.00 | 6.11 | – | – |
| CS(=O)(=O)N(Cc1cccc(-c2cccc(C(=N)N)c2)c1)c1ccc(-c2ccccc2S(N)(=O)=O)cc1 | – | – | 6.72 | – |
| CC(=N)N1CCC(Oc2ccc(N(Cc3cc4cc(C(=N)N)ccc4n3C)S(C)(=O)=O)cc2)CC1 | < 5.00 | 6.78 | 7.51 | – |
| CC(=N)N1CCC(Oc2ccc(N(Cc3cccc(-c4cccc(C(=N)N)c4)c3)S(=O)(=O)CC(=O)O)cc2)CC1 | – | 6.57 | 8.52 | – |
| CCOC(=O)CS(=O)(=O)N(Cc1cccc(-c2cccc(C(=N)N)c2)c1)c1ccc(OC2CCN(C(C)=N)CC2)cc1 | – | 6.53 | 8.15 | – |
| CC(=N)N1CCC(Oc2ccc(N(Cc3cc4ccc(C(=N)N)cc4n3C)S(C)(=O)=O)cc2)CC1 | < 5.00 | 7.60 | 9.10 | – |
| CCOC(=O)CS(=O)(=O)N(Cc1ccc2ccc(C(=N)N)cc2c1)c1ccc(OC2CCN(C(C)=N)CC2)cc1 | – | 7.08 | 8.22 | – |
| CCOC(=O)CS(=O)(=O)N(Cc1cc2cc(C(=N)N)ccc2s1)c1ccc(OC2CCN(C(C)=N)CC2)cc1 | – | 7.07 | – | – |
| CC(=N)N1CCC(Oc2ccc3c(c2)OCC(=O)N3Cc2cc(-c3cccc(C(=N)N)c3)no2)CC1 | < 5.00 | 3.60 | – | – |
| CC(=N)N1CCC(Oc2ccc(N(Cc3cc(C)n(-c4cccc(C(=N)N)c4)n3)S(C)(=O)=O)cc2)CC1 | < 5.00 | 5.68 | – | – |
| CC(=N)N1CCC(Oc2ccc(N(Cc3cc4cc(C(=N)N)ccc4s3)S(=O)(=O)CC(=O)O)cc2)CC1 | – | 7.20 | 8.52 | – |
| CC(=N)N1CCC(Oc2ccc(N(Cc3ccccc3-c3ccc(C(=N)N)cc3)S(C)(=O)=O)cc2)CC1 | < 5.00 | < 5.00 | < 5.00 | – |
| CC(=N)N1CCC(Oc2ccc(N(Cc3cc(C)nn3-c3cccc(C(=N)N)c3)S(C)(=O)=O)cc2)CC1 | < 5.00 | < 5.00 | – | – |
| CC(=N)N1CCN(C(=O)c2ccc(N(Cc3ccc4ccc(C(=N)N)cc4c3)S(C)(=O)=O)cc2)CC1 | – | – | 5.80 | – |
| CC(=N)N1CCC(Oc2ccc3c(c2)OCC(=O)N3Cc2cc3ccc(C(=N)N)cc3n2C)CC1 | – | 7.12 | – | – |
| CC(=N)N1CCC(Oc2ccc(N(Cc3cccc(-c4cccc(C(=N)N)c4)c3)S(C)(=O)=O)cc2)CC1 | < 5.00 | 6.44 | – | – |
| CC(=N)N1CCC(Oc2ccc(N(Cc3ccc4ccc(C(=N)N)cc4c3)S(=O)(=O)CC(=O)O)cc2)CC1 [YM-60828] | – | 7.20 | – | – |
| CC(=N)N1CCC(Oc2ccc3c(c2)OCC(=O)N3Cc2ccc3ccc(C(=N)N)cc3c2)CC1 | – | 7.55 | – | inhibition in vivo at 0.05 mg/kg [4]: 44%; bioavailability [5]: 4.6%; half-life [6]: 54 min; Concentration [7]: 200 nM; pIC50 [8]: < 5.00; inhibition in vivo at 0.1 mg/kg [9]: 99%; half-life [10]: 30 min; inhibition in vivo at 0.025 mg/kg [11]: 7% |
| CC(=N)N1CCC(Oc2ccc(N(Cc3ccccc3-c3cccc(C(=N)N)c3)S(C)(=O)=O)cc2)CC1 | < 5.00 | < 5.00 | 5.15 | – |
| CC(=N)N1CCC(Oc2ccc(N(Cc3ccc4ccc(C(=N)N)cc4c3)S(C)(=O)=O)cc2)CC1 | < 5.00 | 7.03 | 8.22 | – |
| CC(=N)N1CCC(Oc2ccc(N(Cc3cc(-c4cccc(C(=N)N)c4)no3)S(C)(=O)=O)cc2)CC1 | < 5.00 | < 5.00 | 7.85 | – |
| CCn1c(CN2C(=O)COc3cc(OC4CCN(C(C)=N)CC4)ccc32)cc2ccc(C(=N)N)cc21 | – | 7.24 | 8.70 | – |
| CC(=N)N1CCC(Oc2ccc(N(Cc3cc4cc(C(=N)N)ccc4s3)S(C)(=O)=O)cc2)CC1 | < 5.00 | 7.68 | – | – |
| Cc1cc(CN(c2ccc(-c3ccccc3S(N)(=O)=O)cc2)S(C)(=O)=O)n(-c2cccc(C(=N)N)c2)n1 | – | – | 6.30 | – |
